14 molecules from ChEMBL document CHEMBL4665775, “Half-life extension of peptidic APJ agonists by N-terminal lipid conjugation” (Bioorg Med Chem Lett, 2020) can be followed below.

What is called EC50 is the concentration needed to bring the measured effect to its halfway point. For orientation: fraction unbound means free concentration divided by total concentration.

The structures appear in SMILES notation. A value given as a limit tells only on which side of the number the result lay.

For one data set, the target named is T1, Apelin receptor (Rattus norvegicus, UniProt Q9JHG3).
T1 sequence (Q9JHG3 whole entry): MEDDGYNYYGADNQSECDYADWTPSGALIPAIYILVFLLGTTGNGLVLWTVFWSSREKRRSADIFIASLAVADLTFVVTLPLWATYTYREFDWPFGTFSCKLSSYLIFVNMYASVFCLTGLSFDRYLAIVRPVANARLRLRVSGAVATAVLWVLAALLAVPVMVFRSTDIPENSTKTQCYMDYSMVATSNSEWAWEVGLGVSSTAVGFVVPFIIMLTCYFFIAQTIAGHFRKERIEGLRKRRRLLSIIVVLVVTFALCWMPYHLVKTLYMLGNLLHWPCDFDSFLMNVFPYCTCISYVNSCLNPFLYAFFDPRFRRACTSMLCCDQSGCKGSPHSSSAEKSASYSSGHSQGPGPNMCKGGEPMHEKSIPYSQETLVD
Kind of data set: Agonist activity at rat APJ receptor stably expressed in CHO cell membranes in presence of [35S]GTPgammaS by scintillation proximity assay. The data set is classed as functional.

A short description of data set [1]: Plasma protein binding in rat assessed as unbound fraction by LC-MS/MS analysis. The data set is classed as ADME, cell-free.
Data set [2] is described as follows: Stability in rat plasma assessed as compound remaining at 4 hrs. The data set is classed as ADME, cell-free. To be noted: read-out: Stabilty.
Data set [3] can be described thus: Stability in rat Kidney S9 fraction assessed as compound remaining at 4 hrs. Type of data set: ADME, subcellular. To be noted: read-out: Stabilty.

Regarding `CC(C)C[C@@H](C(=O)N[C@@H](CO)C(=O)N[C@@H](Cc1c[nH]cn1)C(=O)N[C@@H](CCCCN)C(=O)NCC(=O)N1[C@H](C(=O)N[C@@H](Cc2ccc(I)cc2)C(=O)N2CCC[C@H]2C(=O)N[C@H](Cc2ccc(-c3ccccc3)cc2)C(=O)O)C[C@@H]2CCCC[C@@H]21)N(C)C(=O)[C@@H](CCCNC(=N)N)NC(=O)[C@@H]1CCCN1C(=O)[C@H](CCCCNC(=N)N)NC(=O)[C@H](CCC(N)=O)NC(=O)[C@@H](CCCNC(=N)N)NC(=O)[C@H](CCCCNC(=N)N)NC(=O)COCCOCCNC(=O)COCCOCCNC(=O)CC[C@H](NC(=O)CCC(=O)O)C(=O)O`, the EC50 on Apelin receptor is 0.49 nM.
Same read-out and setting: the value for `CC(C)C[C@@H](C(=O)N[C@@H](CO)C(=O)N[C@@H](Cc1c[nH]cn1)C(=O)N[C@@H](CCCCN)C(=O)NCC(=O)N1[C@H](C(=O)N[C@@H](Cc2ccc(I)cc2)C(=O)N2CCC[C@H]2C(=O)N[C@H](Cc2ccc(-c3ccccc3)cc2)C(=O)O)C[C@@H]2CCCC[C@@H]21)N(C)C(=O)[C@@H](CCCNC(=N)N)NC(=O)[C@@H]1CCCN1C(=O)[C@H](CCCCNC(=N)N)NC(=O)[C@H](CCC(N)=O)NC(=O)[C@@H](CCCNC(=N)N)NC(=O)[C@H](CCCCNC(=N)N)NC(=O)COCCOCCNC(=O)COCCOCCNC(=O)CC[C@H](NC(=O)CCCCCCC(=O)O)C(=O)O` was 2.61 nM; that for `CC(C)C[C@@H](C(=O)N[C@@H](CO)C(=O)N[C@@H](Cc1c[nH]cn1)C(=O)N[C@@H](CCCCN)C(=O)NCC(=O)N1[C@H](C(=O)N[C@@H](Cc2ccc(I)cc2)C(=O)N2CCC[C@H]2C(=O)N[C@H](Cc2ccc(-c3ccccc3)cc2)C(=O)O)C[C@@H]2CCCC[C@@H]21)N(C)C(=O)[C@@H](CCCNC(=N)N)NC(=O)[C@@H]1CCCN1C(=O)[C@H](CCCCNC(=N)N)NC(=O)[C@H](CCC(N)=O)NC(=O)[C@@H](CCCNC(=N)N)NC(=O)[C@H](CCCCNC(=N)N)NC(=O)COCCOCCNC(=O)COCCOCCNC(=O)CC[C@H](NC(=O)CCCCCCCCC(=O)O)C(=O)O` was 2.89 nM.
For `CCCCCCCCCCCCCC(=O)N[C@@H](CCC(=O)NCCOCCOCC(=O)NCCOCCOCC(=O)N[C@@H](CCCCNC(=N)N)C(=O)N[C@H](CCCNC(=N)N)C(=O)N[C@@H](CCC(N)=O)C(=O)N[C@@H](CCCCNC(=N)N)C(=O)N1CCC[C@H]1C(=O)N[C@H](CCCNC(=N)N)C(=O)N(C)[C@@H](CC(C)C)C(=O)N[C@@H](CO)C(=O)N[C@@H](Cc1c[nH]cn1)C(=O)N[C@@H](CCCCN)C(=O)NCC(=O)N1[C@H](C(=O)N[C@@H](Cc2ccc(I)cc2)C(=O)N2CCC[C@H]2C(=O)N[C@H](Cc2ccc(-c3ccccc3)cc2)C(=O)O)C[C@@H]2CCCC[C@@H]21)C(=O)O`, the fraction unbound in data set [1] was determined as 0.0023. In addition, the EC50 on Apelin receptor is 3.63 nM.
For `CC(=O)N[C@@H](CCC(=O)NCCOCCOCC(=O)NCCOCCOCC(=O)N[C@@H](CCCCNC(=N)N)C(=O)N[C@H](CCCNC(=N)N)C(=O)N[C@@H](CCC(N)=O)C(=O)N[C@@H](CCCCNC(=N)N)C(=O)N1CCC[C@H]1C(=O)N[C@H](CCCNC(=N)N)C(=O)N(C)[C@@H](CC(C)C)C(=O)N[C@@H](CO)C(=O)N[C@@H](Cc1c[nH]cn1)C(=O)N[C@@H](CCCCN)C(=O)NCC(=O)N1[C@H](C(=O)N[C@@H](Cc2ccc(I)cc2)C(=O)N2CCC[C@H]2C(=O)N[C@H](Cc2ccc(-c3ccccc3)cc2)C(=O)O)C[C@@H]2CCCC[C@@H]21)C(=O)O`, the remaining at 4 h in data set [2] was above 90%; in data set [3], 30%. For the same molecule, in data set [1], the fraction unbound stood at 0.001. For the same molecule, on Apelin receptor, the EC50 turned out to be 0.92 nM.
On to `CC(C)C[C@@H](C(=O)N[C@@H](CO)C(=O)N[C@@H](Cc1c[nH]cn1)C(=O)N[C@@H](CCCCN)C(=O)NCC(=O)N1[C@H](C(=O)N[C@@H](Cc2ccc(I)cc2)C(=O)N2CCC[C@H]2C(=O)N[C@H](Cc2ccc(-c3ccccc3)cc2)C(=O)O)C[C@@H]2CCCC[C@@H]21)N(C)C(=O)[C@@H](CCCNC(=N)N)NC(=O)[C@@H]1CCCN1C(=O)[C@H](CCCCNC(=N)N)NC(=O)[C@H](CCC(N)=O)NC(=O)[C@@H](CCCNC(=N)N)NC(=O)[C@H](CCCCNC(=N)N)NC(=O)COCCOCCNC(=O)COCCOCCNC(=O)CC[C@H](NC(=O)CCCCCCCCCCCCC(=O)O)C(=O)O`, for which the EC50 at Apelin receptor worked out at 17.8 nM.
`CCCCCCCCCCCCCCCCCC(=O)N[C@@H](CCC(=O)NCCOCCOCC(=O)NCCOCCOCC(=O)N[C@@H](CCCCNC(=N)N)C(=O)N[C@H](CCCNC(=N)N)C(=O)N[C@@H](CCC(N)=O)C(=O)N[C@@H](CCCCNC(=N)N)C(=O)N1CCC[C@H]1C(=O)N[C@H](CCCNC(=N)N)C(=O)N(C)[C@@H](CC(C)C)C(=O)N[C@@H](CO)C(=O)N[C@@H](Cc1c[nH]cn1)C(=O)N[C@@H](CCCCN)C(=O)NCC(=O)N1[C@H](C(=O)N[C@@H](Cc2ccc(I)cc2)C(=O)N2CCC[C@H]2C(=O)N[C@H](Cc2ccc(-c3ccccc3)cc2)C(=O)O)C[C@@H]2CCCC[C@@H]21)C(=O)O`: the EC50 on Apelin receptor turned out to be 3.78 nM.
As for `CCCCCCCCCCCC(=O)N[C@@H](CCC(=O)NCCOCCOCC(=O)NCCOCCOCC(=O)N[C@@H](CCCCNC(=N)N)C(=O)N[C@H](CCCNC(=N)N)C(=O)N[C@@H](CCC(N)=O)C(=O)N[C@@H](CCCCNC(=N)N)C(=O)N1CCC[C@H]1C(=O)N[C@H](CCCNC(=N)N)C(=O)N(C)[C@@H](CC(C)C)C(=O)N[C@@H](CO)C(=O)N[C@@H](Cc1c[nH]cn1)C(=O)N[C@@H](CCCCN)C(=O)NCC(=O)N1[C@H](C(=O)N[C@@H](Cc2ccc(I)cc2)C(=O)N2CCC[C@H]2C(=O)N[C@H](Cc2ccc(-c3ccccc3)cc2)C(=O)O)C[C@@H]2CCCC[C@@H]21)C(=O)O`, the fraction unbound in data set [1] is 0.0013. Also, the concentration for a half-maximal effect (EC50) on Apelin receptor stood at 3.56 nM.
As to `CCCCCCCCCCCCCCCC(=O)N[C@@H](CCC(=O)NCCOCCOCC(=O)NCCOCCOCC(=O)N[C@@H](CCCCNC(=N)N)C(=O)N[C@H](CCCNC(=N)N)C(=O)N[C@@H](CCC(N)=O)C(=O)N[C@@H](CCCCNC(=N)N)C(=O)N1CCC[C@H]1C(=O)N[C@H](CCCNC(=N)N)C(=O)N(C)[C@@H](CC(C)C)C(=O)N[C@@H](CO)C(=O)N[C@@H](Cc1c[nH]cn1)C(=O)N[C@@H](CCCCN)C(=O)NCC(=O)N1[C@H](C(=O)N[C@@H](Cc2ccc(I)cc2)C(=O)N2CCC[C@H]2C(=O)N[C@H](Cc2ccc(-c3ccccc3)cc2)C(=O)O)C[C@@H]2CCCC[C@@H]21)C(=O)O`, the fraction unbound in data set [1] was 0.0189. On Apelin receptor, the EC50 was determined as 4.01 nM.
Turning to `CC(C)C[C@@H](C(=O)N[C@@H](CO)C(=O)N[C@@H](Cc1c[nH]cn1)C(=O)N[C@@H](CCCCN)C(=O)NCC(=O)N1[C@H](C(=O)N[C@@H](Cc2ccc(I)cc2)C(=O)N2CCC[C@H]2C(=O)N[C@H](Cc2ccc(-c3ccccc3)cc2)C(=O)O)C[C@@H]2CCCC[C@@H]21)N(C)C(=O)[C@@H](CCCNC(=N)N)NC(=O)[C@@H]1CCCN1C(=O)[C@H](CCCCNC(=N)N)NC(=O)[C@H](CCC(N)=O)NC(=O)[C@@H](CCCNC(=N)N)NC(=O)[C@H](CCCCNC(=N)N)NC(=O)COCCOCCNC(=O)COCCOCCNC(=O)CC[C@H](NC(=O)CCCCCCCCCCC(=O)O)C(=O)O`, the EC50 on Apelin receptor is 9.34 nM.
For the molecule `CC(C)C[C@@H](C(=O)N[C@@H](CO)C(=O)N[C@@H](Cc1c[nH]cn1)C(=O)N[C@@H](CCCCN)C(=O)NCC(=O)N1[C@H](C(=O)N[C@@H](Cc2ccc(I)cc2)C(=O)N2CCC[C@H]2C(=O)N[C@H](Cc2ccc(-c3ccccc3)cc2)C(=O)O)C[C@@H]2CCCC[C@@H]21)N(C)C(=O)[C@@H](CCCNC(=N)N)NC(=O)[C@@H]1CCCN1C(=O)[C@H](CCCCNC(=N)N)NC(=O)[C@H](CCC(N)=O)NC(=O)[C@@H](CCCNC(=N)N)NC(=O)[C@H](CCCCNC(=N)N)NC(=O)COCCOCCNC(=O)COCCOCCNC(=O)CC[C@H](NC(=O)CCCCCCCCCCCCCCC(=O)O)C(=O)O`, at Apelin receptor, the EC50 amounted to 56.1 nM.
With `CCCC(=O)N[C@@H](CCC(=O)NCCOCCOCC(=O)NCCOCCOCC(=O)N[C@@H](CCCCNC(=N)N)C(=O)N[C@H](CCCNC(=N)N)C(=O)N[C@@H](CCC(N)=O)C(=O)N[C@@H](CCCCNC(=N)N)C(=O)N1CCC[C@H]1C(=O)N[C@H](CCCNC(=N)N)C(=O)N(C)[C@@H](CC(C)C)C(=O)N[C@@H](CO)C(=O)N[C@@H](Cc1c[nH]cn1)C(=O)N[C@@H](CCCCN)C(=O)NCC(=O)N1[C@H](C(=O)N[C@@H](Cc2ccc(I)cc2)C(=O)N2CCC[C@H]2C(=O)N[C@H](Cc2ccc(-c3ccccc3)cc2)C(=O)O)C[C@@H]2CCCC[C@@H]21)C(=O)O`, the EC50 at Apelin receptor stood at 0.24 nM.
`CCCCCCCC(=O)N[C@@H](CCC(=O)NCCOCCOCC(=O)NCCOCCOCC(=O)N[C@@H](CCCCNC(=N)N)C(=O)N[C@H](CCCNC(=N)N)C(=O)N[C@@H](CCC(N)=O)C(=O)N[C@@H](CCCCNC(=N)N)C(=O)N1CCC[C@H]1C(=O)N[C@H](CCCNC(=N)N)C(=O)N(C)[C@@H](CC(C)C)C(=O)N[C@@H](CO)C(=O)N[C@@H](Cc1c[nH]cn1)C(=O)N[C@@H](CCCCN)C(=O)NCC(=O)N1[C@H](C(=O)N[C@@H](Cc2ccc(I)cc2)C(=O)N2CCC[C@H]2C(=O)N[C@H](Cc2ccc(-c3ccccc3)cc2)C(=O)O)C[C@@H]2CCCC[C@@H]21)C(=O)O`: the fraction unbound in data set [1] was 0.0027. Moreover, the EC50 at Apelin receptor worked out at 3.05 nM.
Turning to `CCCCCCCCCC(=O)N[C@@H](CCC(=O)NCCOCCOCC(=O)NCCOCCOCC(=O)N[C@@H](CCCCNC(=N)N)C(=O)N[C@H](CCCNC(=N)N)C(=O)N[C@@H](CCC(N)=O)C(=O)N[C@@H](CCCCNC(=N)N)C(=O)N1CCC[C@H]1C(=O)N[C@H](CCCNC(=N)N)C(=O)N(C)[C@@H](CC(C)C)C(=O)N[C@@H](CO)C(=O)N[C@@H](Cc1c[nH]cn1)C(=O)N[C@@H](CCCCN)C(=O)NCC(=O)N1[C@H](C(=O)N[C@@H](Cc2ccc(I)cc2)C(=O)N2CCC[C@H]2C(=O)N[C@H](Cc2ccc(-c3ccccc3)cc2)C(=O)O)C[C@@H]2CCCC[C@@H]21)C(=O)O`, the EC50 on Apelin receptor was 1.35 nM.
